This test has as its target LTC4S (Homo sapiens (Human), UniProt Q16873). In words: Human whole blood HTRF assay (LTC4 release after calcium ionophore A23187). Format: cell-based. The following applies: human whole blood diluted 1:3, 4 h incubation, calcium ionophore A23187 stimulation, LTC4 by HTRF; read-out: human whole blood HTRF IC50. Here is the method:
B. Human Whole Blood HTRF Assay
LTC4 synthase catalyzes the conversion of Leukotriene A4 (LTA4) to Leukotriene C4 (LTC4) in the presence of reduced glutathione (GSH) as a co-substrate. For testing the inhibition of LTC4S, compounds are prepared for either eight-point or sixteen-point dose response studies in 384-well Labcyte low dead volume (LDV) plates. For eight-point dose response studies, compounds are diluted 1:5 starting at 1 μM concentration in 90% DMSO. […] Compounds are studied in duplicates. Ten wells are filled with 90% DMSO which correspond to the stimulated and unstimulated control wells. […] The morning of the assay, whole blood is collected from three human donors. Donors must be non-smokers and must not have taken NSAIDs within the 48 hours prior to blood collection. The amount of blood collected per donor depends on the amount of compounds to be tested and the dose response format in which they are to be studied (about 8 mL of whole blood for either 22 compounds in 8-point dose response format or 11 compounds in 16-point dose response format). […] 50 μL of diluted blood are then dispensed into each assay plate well with pre-dispensed compounds and DMSO for the stimulated and unstimulated controls using a Thermo Scientific™ Multidrop™ Combi reagent dispenser, and incubated at 37° C. for 4 hours. Calcium ionophore A23187 is used to induce a rapid increase in intracellular levels of Ca^2+. The Ca^2+ functions as a universal second messenger in various immune cells, such as T cells, B cells and mast cells, and is used to induce degranulation and release of eicosanoids, including LTC4, by cells contained in the whole blood samples. […] All but the unstimulated control wells are subsequently stimulated by dispensing 1 μL of the 0.5 mg/mL calcium ionophore suspension using the Thermo Scientific™ Multidrop™ Combi reagent dispenser. Plates are incubated for 15 minutes at 37° C. Plates are then centrifuged at 300 g for 10 minutes at room temperature to pellet blood cells and stop the reaction. […] Plates are sealed and stored at −80° C.
In order to measure the amount of LTC4 released by cells in the human blood samples during calcium ionophore stimulation, supernatants are analyzed using the Cisbio LTC4 homogeneous time-resolved FRET (HTRF) kit (Cisbio #64LC4PEH). […] Ten serially diluted standard curve solutions are also dispensed in duplicate into each plate as instructed in the protocol. Blank controls and cryptate control wells are also prepared. Then, 5 μL of anti-LTC4-d2 working solution are dispensed into all the wells, but the cryptate control wells. Subsequently, 5 μL of anti-LTC4-Eu3+ cryptate working solution are dispensed into all the wells. Plates are then covered with a lid and incubated at room temperature for one hour with gentle orbital shaking (˜450 rpm). […] HTRF ratios are calculated for each well by dividing the 665 nm intensity by the 620 nm intensity, and multiplying the resulting ratio by 10,000. LTC4 standard curves are interpolated for each plate and used to convert the HTRF ratio readouts into the amount of LTC4 present in each well (in ng/mL). Parametric curve fitting is used to obtain inhibition curves and IC50 values.
The term IC50 denotes the concentration that inhibits the measured activity by half. With `NC1(C(F)(F)F)CCN(c2ccnc(N3CCC4(CCCC(=O)N4c4ccc(F)c(F)c4)CC3)n2)CC1` [Example 39, 9-(4-(4-amino-4-(trifluoromethyl)piperidin-1-yl)pyrimidin-2-yl)-1-(3,4-difluorophenyl)-1,9-diazaspiro[5.5]undecan-2-one], the IC50 was 0.004 µM.
The same measure for `O=C1CCCC2(CCN(c3ncnc(N4CCC(O)(C(F)(F)F)CC4)n3)CC2)N1c1ccc(F)c(F)c1` [Example 40, 1-(3,4-difluorophenyl)-9-(4-(4-hydroxy-4-(trifluoromethyl)piperidin-1-yl)-1,3,5-triazin-2-yl)-1,9-diazaspiro[5.5]undecan-2-one]: 0.004 µM.
Next, `Nc1nc(N2CCC3(CCCC(=O)N3c3ccc(F)c(F)c3)CC2)c(F)c(N2CCC(O)(C(F)(F)F)CC2)n1` [Example 41, 9-(2-amino-5-fluoro-6-(4-hydroxy-4-(trifluoromethyl)piperidin-1-yl)pyrimidin-4-yl)-1-(3,4-difluorophenyl)-1,9-diazaspiro[5.5]undecan-2-one]: 0.005 µM; `O=C1CCCC2(CCN(c3cnnc(N4CCC(O)(C(F)(F)F)CC4)c3)CC2)N1c1ccc(F)c(F)c1` [Example 42, 1-(3,4-difluorophenyl)-9-(6-(4-hydroxy-4-(trifluoromethyl)piperidin-1-yl)pyridazin-4-yl)-1,9-diazaspiro[5.5]undecan-2-one]: 0.41 µM.
Turning to `CC1(O)CN(c2nc(N)cc(N3CCC4(CCCC(=O)N4c4ccc(F)c(F)c4)CC3)n2)C1` [Example 43, 9-(6-amino-2-(3-hydroxy-3-methylazetidin-1-yl)pyrimidin-4-yl)-1-(3,4-difluorophenyl)-1,9-diazaspiro[5.5]undecan-2-one], the IC50 is 0.4 µM.
Turning to `O=C1CCCC2(CCN(c3cc(N4CCCOCC4)ncn3)CC2)N1c1ccc(F)c(F)c1` [Example 45, 9-(6-(1,4-oxazepan-4-yl)pyrimidin-4-yl)-1-(3,4-difluorophenyl)-1,9-diazaspiro[5.5]undecan-2-one], the IC50 was 0.62 µM.
The same measure for `O=C1CCCC2(CCN(c3cc(-n4cc(C(F)(F)F)cn4)ncn3)CC2)N1c1ccc(F)c(F)c1` [Example 47, 1-(3,4-difluorophenyl)-9-(6-(4-(trifluoromethyl)-1H-pyrazol-1-yl)pyrimidin-4-yl)-1,9-diazaspiro[5.5]undecan-2-one]: 0.007 µM; for `Cc1nc(N2CCC3(CCCC(=O)N3c3ccc(F)c(F)c3)CC2)cc(-n2cccn2)n1` [Example 48, 1-(3,4-difluorophenyl)-9-(2-methyl-6-(1H-pyrazol-1-yl)pyrimidin-4-yl)-1,9-diazaspiro[5.5]undecan-2-one]: 0.045 µM.
Next, `N#Cc1nc(N2CCC3(CCCC(=O)N3c3ccc(F)c(F)c3)CC2)cc(-n2cccn2)n1` [Example 49, 4-(1-(3,4-difluorophenyl)-2-oxo-1,9-diazaspiro[5.5]undecan-9-yl)-6-(1H-pyrazol-1-yl)pyrimidine-2-carbonitrile]: 0.088 µM.
Next, `COc1nc(N2CCC3(CCCC(=O)N3c3ccc(F)c(F)c3)CC2)cc(-n2cccn2)n1` [Example 50, 1-(3,4-difluorophenyl)-9-(2-methoxy-6-(1H-pyrazol-1-yl)pyrimidin-4-yl)-1,9-diazaspiro[5.5]undecan-2-one]: 0.045 µM; `O=C1CCCC2(CCN(c3cc(-n4cccn4)nc(C(F)(F)F)n3)CC2)N1c1ccc(F)c(F)c1` [Example 51, 9-(6-(1H-pyrazol-1-yl)-2-(trifluoromethyl)pyrimidin-4-yl)-1-(3,4-difluorophenyl)-1,9-diazaspiro[5.5]undecan-2-one]: 0.07 µM.
On to `O=C1CCCC2(CCN(c3cc(-n4cccn4)nc(N4CCOCC4)n3)CC2)N1c1ccc(F)c(F)c1` [Example 52, 1-(3,4-difluorophenyl)-9-(2-morpholino-6-(1H-pyrazol-1-yl)pyrimidin-4-yl)-1,9-diazaspiro[5.5]undecan-2-one], for which the IC50 amounted to 0.029 µM.
Next, `CN(C)c1nc(N2CCC3(CCCC(=O)N3c3ccc(F)c(F)c3)CC2)cc(-n2cccn2)n1` [Example 53, 1-(3,4-difluorophenyl)-9-(2-(dimethylamino)-6-(1H-pyrazol-1-yl)pyrimidin-4-yl)-1,9-diazaspiro[5.5]undecan-2-one]: 1.14 µM; `O=C1CCCC2(CCN(c3cc(-n4cncn4)ncn3)CC2)N1c1ccc(F)c(F)c1` [Example 54, 9-(6-(1H-1,2,4-triazol-1-yl)pyrimidin-4-yl)-1-(3,4-difluorophenyl)-1,9-diazaspiro[5.5]undecan-2-one]: 0.3 µM.
The same measure for `O=C1CCCC2(CCN(c3cc(-n4cc(Cl)cn4)ncn3)CC2)N1c1ccc(F)c(F)c1` [Example 55, 9-(6-(4-chloro-1H-pyrazol-1-yl)pyrimidin-4-yl)-1-(3,4-difluorophenyl)-1,9-diazaspiro[5.5]undecan-2-one]: 0.006 µM; for `O=C1CCCC2(CCN(c3cc(-n4cc(F)cn4)ncn3)CC2)N1c1ccc(F)c(F)c1` [Example 56, 9-(6-(4-fluoro-1H-pyrazol-1-yl)pyrimidin-4-yl)-1-(3,4-difluorophenyl)-1,9-diazaspiro[5.5]undecan-2-one]: 0.017 µM; for `O=C1CCCC2(CCN(c3cc(-n4ccc(C(F)(F)F)n4)ncn3)CC2)N1c1ccc(F)c(F)c1` [Example 57, 1-(3,4-difluorophenyl)-9-(6-(3-(trifluoromethyl)-1H-pyrazol-1-yl)pyrimidin-4-yl)-1,9-diazaspiro[5.5]undecan-2-one]: 0.85 µM.
The same measure for `O=C1CCCC2(CCN(c3cc(-n4cnc(C(F)(F)F)c4)ncn3)CC2)N1c1ccc(F)c(F)c1` [Example 58, 1-(3,4-difluorophenyl)-9-(6-(4-(trifluoromethyl)-1H-imidazol-1-yl)pyrimidin-4-yl)-1,9-diazaspiro[5.5]undecan-2-one]: 0.56 µM.
Regarding `Nc1nc(N2CCC3(CCCC(=O)N3c3ccc(F)c(F)c3)CC2)c(F)c(-n2cccn2)n1` [Example 59, 9-(2-amino-5-fluoro-6-(1H-pyrazol-1-yl)primidin-4-yl)-1-(3,4-difluorophenyl)-1,9-diazaspiro[5.5]undecan-2-one], the IC50 was 0.64 µM.
As for `Nc1nc(N2CCC3(CCCC(=O)N3c3ccc(F)c(F)c3)CC2)nc(-n2cc(F)cn2)n1` [Example 60, 9-(4-amino-6-(4-fluoro-1H-pyrazol-1-yl)-1,3,5-triazin-2-yl)-1-(3,4-difllorophenyl)-1,9-diazaspiro[5.5]undecan-2-one], the IC50 was 0.68 µM.
The same measure for `O=C1CCCC2(CCN(c3cc(OC4COC4)nc(C(F)(F)F)n3)CC2)N1c1ccc(F)c(F)c1` [Example 61, 1-(3,4-difluorophenyl)-9-(6-(oxetan-3-yloxy)-2-(trifluoromethyl)pyrimidin-4-yl)-1,9-diazaspiro[5.5]undecan-2-one]: 0.029 µM; for `O=C1CCCC2(CCN(c3cc(-c4ncco4)ncn3)CC2)N1c1ccc(F)c(F)c1` [Example 62, 1-(3,4-difluorophenyl)-9-(6-(oxazol-2-yl)pyrimidin-4-yl)-1,9-diazaspiro[5.5]undecan-2-one]: 0.41 µM.
Next, `Nc1cc(N2CCC3(CCCC(=O)N3c3ccc(F)c(F)c3)CC2)nc(-c2ccccn2)n1` [Example 63, 9-(6-amino-2-(pyridin-2-yl)pyrimidin-4-yl)-1-(3,4-difluorophenyl)-1,9-diazaspiro[5.5]undecan-2-one]: 0.43 µM.
The same measure for `Nc1nc(N2CCC3(CCCC(=O)N3c3ccc(F)c(F)c3)CC2)cc(-n2cc(C(F)(F)F)cn2)n1` [Example 64, 9-(2-amino-6-(4-(trifluoromethyl)-1H-pyrazol-1-yl)pyrimidin-4-yl)-1-(3,4-difluorophenyl)-1,9-diazaspiro[5.5]undecane-2-one]: 0.002 µM.
`CC(C)(O)c1nc(N2CCC3(CCCC(=O)N3c3ccc(F)c(F)c3)CC2)cc(-n2cc(C(F)(F)F)cn2)n1` [Example 65, 1-(3,4-difluorophenyl)-9-(2-(2-hydroxypropan-2-yl)-6-(4-(trifluoromethyl)-1H-pyrazol-1-yl)pyrimidin-4-yl)1,9-diazaspiro[5.5]undecane-2-one]: the IC50 is 0.001 µM.

These data come from US11708366B2, “Heteroaryl substituted spiropiperidinyl derivatives and pharmaceutical uses thereof” (Novartis AG, priority 2020, dated 2023).
